According to patent US20230285504A1, “INHIBITION OF REPERFUSION INJURY WITH A PSD-95 INHIBITOR” (NONO INC., priority 2020, published 2023):
“Also recorded” adds a separate entry of the source. No end group written: not given here.

Assays:
[1] = Pharmacokinetics of nerinetide in rats with simultaneous alteplase; assay type: in vivo; conditions: rat
Procedure: (§1) A. LC/MS spectrum of nerinetide after incubation with plasmin in PBS. 10 uL aliquots of nerinetide (18 mg/mL) and plasmin (1 mg/mL) were incubated in 500 uL tubes of phosphate-buffered saline at 37 C for 5 min and the reaction stopped by cooling to −80C until tested. The various peaks correspond to the indicated fragments. Insert: Predicted trypsin cleavage sites and actual cleavage sites. (B,C) In-vitro effect of rt-PA on nerinetide content in rat (B) and human (C) plasma. Nerinetide was spiked into the plasma samples at t=0 at a concentration of 65 ug/ml, whereas alteplase (rt-PA) was administered as a 60 min infusion at the indicated concentration (D, E) In-vivo effect of the simultaneous administration of nerinetide and rt-PA on Cmax (D) and AUC (E) in the rat. The nerinetide bolus and alteplase (60 min infusion) were started simultaneously through two separate intravenous lines. Symbols represent mean±SD.
Since the effect of nerinetide in the ESCAPE-NA1 trial was negated by alteplase, we next evaluated the effects of alteplase on pharmacokinetics (PK) of nerinetide in rats. Alteplase was administered at 0.9 mg/kg (human dose) and at 5.4 mg/kg (6 times the human dose) in an infusion that simulated the clinical protocol (10% bolus followed by a 60 min infusion of the remainder). Nerinetide was administered as an intravenous bolus at the start of the alteplase infusion at 7.6 mg/kg.

[2] = molecular target: second PDZ domain of PSD-95 protein (Homo sapiens, UniProt P78352); conditions: read-out: EC50 binding to second PDZ domain of PSD-95; cited from earlier work
[3] = intravenous over 10 minutes; cited from earlier work
[4] = Intrinsic fibrinolytic activity
[5] = molecular target: protein-protein interactions of PSD-95 with N-Methyl-D-Aspartate glutamate receptors (NMDARs); conditions: read-out: IC50 perturbing PSD-95 interaction with NMDARs; cited from earlier work
[6] = PK dose-separation study of nerinetide and alteplase in macaques; assay type: in vivo, cynomolgus macaques (Macaca fascicularis); conditions: macaque
Procedure: We conducted further PK studies to probe the necessary dose-separation interval to mitigate degradation. These studies were conducted in cynomolgus macaques (Macaca fascicularis) to maximize their relevance to humans. Nerinetide was given as a 10-minute intravenous infusion at a dose of 2.6 mg/kg. This dosing regimen was neuroprotective in macaques exposed to stroke by LVO (Cook et al., Nature 483, 213-217 (2012)) and was used in both the Phase 2 ENACT trial (Lancet Neurol 11, 942-950 (2012)) and the ESCAPE-NA1 trial (Lancet 395, 878-887 (2020)). We examined the scenarios in which alteplase administration was started simultaneously with the nerinetide infusion start, at the end of the 10-minute nerinetide infusion, or 10 minutes after the end of nerinetide infusion. Alteplase (1 mg/kg) was administered through a separate intravenous line as a 10% bolus, followed by an infusion of the remaining 90% over 1 hour, as per its clinical use.

[7] = In-vitro effect of alteplase (rt-PA) on nerinetide content in rat plasma (HPLC); assay type: in vitro ADME; conditions: 65 ug/ml nerinetide, 37 C, alteplase added over 60 minutes (22.5 ug/ml, 3 times and 6 times)
Procedure: as §1
The concentration of 65 ug/ml of nerinetide represents the theoretical peak concentration in a 75 kg person receiving 2.6 mg/kg dose as a bolus. Alteplase was added over 60 minutes to simulate the clinical dosing approach.

[8] = test system: transient middle cerebral artery occlusion (tMCAO); assay: Dose-response study of nerinetide in transient middle cerebral artery occlusion; assay type: in vivo; conditions: rat tMCAo
Procedure: FIGS. 9A-B: Nerinetide is effective over a dosage range of at least 0.025-25 mg/kg in a rat tMCAo model in (A) reducing infarction size and (B) reducing neurologic deficit.
The cleavage of full-length nerinetide by high dose alteplase was incomplete, raising the possibility that some active drug could still remain to achieve neuroprotection. This was supported in rats by a dose-response study of nerinetide in a model of transient middle cerebral artery occlusion (tMCAO). Nerinetide and lodoxamide was administered to rats intravenously as a bolus injection, 60 minutes after tMCAo. […] Bars in A and represent mean±SD, with all individual data points plotted. […] Vehicle: PBS alone. Scrambled: ADA peptide incapable of binding PSD-95. Doses as low as 0.25 mg/kg produced a significant reduction in infarct volume (P=0.01) and an improvement in neurological function. Doses as low as 0.025 mg/kg were also effective. Doses up to at least 25 mg/kg were also effective with the highest efficacy being at about 15 mg/kg. The observed wide therapeutic range was attributable to nerinetide, and not to the mast cell degranulation inhibitor lodoxamide, which was present in all solutions to avoid potential hypotension due to histamine release.

[9] = molecular target: protein-protein interactions of PSD-95 with neuronal nitric oxide synthase (nNOS) (Homo sapiens, UniProt P78352); conditions: read-out: IC50 perturbing PSD-95 interaction with nNOS; cited from earlier work
[10] = nerinetide 7.6 mg/kg iv bolus with alteplase 0.9 mg/kg (human dose)
[11] = nerinetide 7.6 mg/kg iv bolus with alteplase 5.4 mg/kg started simultaneously
[12] = alteplase started at the end of the 10-minute nerinetide infusion
[13] = nerinetide 2.6 mg/kg 10-minute iv infusion, alteplase 1 mg/kg started simultaneously

second PDZ domain of PSD-95 protein, sequence (P78352 160-246 limits assumed): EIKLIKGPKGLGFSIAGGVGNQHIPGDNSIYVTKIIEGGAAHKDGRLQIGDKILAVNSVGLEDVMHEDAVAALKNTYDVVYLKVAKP
protein-protein interactions of PSD-95 with neuronal nitric oxide synthase (nNOS), sequence (P78352 whole entry): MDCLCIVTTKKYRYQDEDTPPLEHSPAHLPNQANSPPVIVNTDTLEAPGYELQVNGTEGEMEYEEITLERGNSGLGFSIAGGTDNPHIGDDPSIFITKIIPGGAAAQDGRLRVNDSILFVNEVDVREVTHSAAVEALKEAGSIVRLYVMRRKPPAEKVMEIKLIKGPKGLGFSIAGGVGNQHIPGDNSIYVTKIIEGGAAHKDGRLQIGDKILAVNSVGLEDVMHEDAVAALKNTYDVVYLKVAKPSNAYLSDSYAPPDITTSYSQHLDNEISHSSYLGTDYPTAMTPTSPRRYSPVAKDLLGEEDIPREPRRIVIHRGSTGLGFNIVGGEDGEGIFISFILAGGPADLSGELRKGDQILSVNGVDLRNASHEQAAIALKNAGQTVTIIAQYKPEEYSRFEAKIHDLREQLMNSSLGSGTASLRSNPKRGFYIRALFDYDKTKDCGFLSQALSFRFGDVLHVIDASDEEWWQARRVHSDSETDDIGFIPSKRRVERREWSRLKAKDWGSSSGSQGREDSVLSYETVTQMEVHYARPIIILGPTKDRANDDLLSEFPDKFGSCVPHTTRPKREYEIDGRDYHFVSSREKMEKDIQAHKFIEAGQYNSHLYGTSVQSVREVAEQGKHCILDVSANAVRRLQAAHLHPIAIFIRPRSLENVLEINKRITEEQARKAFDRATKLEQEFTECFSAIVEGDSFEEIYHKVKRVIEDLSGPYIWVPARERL

YGRKKRRQRRRKLSSIESDV [nerinetide]
half-life ([1]; plasma, intravenous, 7.6 mg/kg, human equivalent concentrations (FIG. 6D)): 5 to 10 min
change of AUC of nerinetide [1, 10]: non-significant reduction
change of Cmax of nerinetide [1, 10]: non-significant reduction
lowering of mean AUC of nerinetide [1, 11]: 44%
lowering of mean Cmax of nerinetide [1, 11]: 49.5%
EC50 [2]: ~7 nM
plasma half-life [3]: 5 to 10 min
intrinsic fibrinolytic activity [4]: does not have any intrinsic fibrinolytic activity
IC50 [5]: 1000 to 8000 nM
degradation of Cmax or AUC of nerinetide by alteplase ([6]; alteplase 10 minutes after the end of the 10-min nerinetide infusion): eliminated degradation of Cmax or AUC by alteplase to within the margin of measurement error; also recorded: substantially reduces cleavage of nerinetide
reduction in the AUC of nerinetide [6, 12]: 32.3%
reduction of the Cmax of nerinetide [6, 12]: 23.1%
reduction in the AUC of nerinetide [6, 13]: 53.9%
reduction of the Cmax of nerinetide [6, 13]: 47.4%
nerinetide content in rat plasma on addition of alteplase [7]: reduced the nerinetide content in rat plasma in a concentration-dependent manner
dose of highest efficacy ([8]; 24 hours): about 15 mg/kg
lowest dose also effective ([8]; 24 hours, doses as low as): 0.025 mg/kg
upper dose also effective ([8]; 24 hours, doses up to at least): at least 25 mg/kg
dose producing significant reduction in infarct volume (P=0.01) and improvement in neurological function ([8]; iv bolus with lodoxamide 60 minutes after tMCAo, 24 hours, doses as low as): 0.25 mg/kg
effective dosage range (reducing infarction size and neurologic deficit) ([8]; iv bolus with lodoxamide 60 minutes after tMCAo, read 24 hours): 0.025-25 mg/kg
IC50 [9]: ~200 nM
